“And” between values parts separate entries of the source, which are not always exact repeats. Equal entries are not always repeated.

The series in a line: UV absorption (ethanol). The class given is physicochemical. The conditions noted are these: UV spectrum in ethanol; for εmax: at the λmax of the same cell.

With `C=C(C)Cc1cc(OC)cc(-c2nc3ccccc3[nH]2)c1O` [2-(1H-benzimidazol-2-yl)-4-methoxy-6-(2-methyl-allyl)-phenol], the λmax was 302 nm and 343 nm; the εmax is 18,500 and 16,200.
`C[Si](C)(C)CCCOc1ccc(-c2nc3ccccc3[nH]2)c(O)c1` [Example 3]: the λmax was 333 nm and 318 nm; the εmax is 22,200 and 24,250.
`C=C(C)Cc1cc(C)cc(-c2nc3ccccc3o2)c1O` [2-benzoxazol-2-yl-4-methyl-6-(2-methyl-allyl)-phenol]: the λmax was 299 nm and 333 nm; the εmax was 20,130 and 14,180.
